Data set [1] is described as follows: solubility of the products in solvents. The format is physicochemical.
For data set [2] the following is noted: background statement; cited from earlier work.

Take `CCOC(=O)C1=C(c2ccccc2)NC(=O)/C1=C1/C(=O)NC(c2ccccc2)=C1C(=O)OCC` [diethyl bipyrrolinonylidenedicarboxylate]: the “solubility in dimethyl sulfoxide” value in data set [1] (solvent dimethyl sulfoxide) is reported as “soluble”. In addition, in data set [1] (solvent dimethylformamide), the solubility in dimethylformamide result is reported as “soluble”. Moreover, in data set [1] (solvent ethanol), the solubility in ethanol result is reported as “slightly soluble”.

With `O=C1NC(c2ccccc2)=C/C1=C1/C=C(c2ccccc2)NC1=O` [formula (b), bipyrrolinonylidene], the “solubility in water and organic solvents” value in data set [2] was “poor solubility”.
